Test results as given in patent US5070210A, “Novel ketenimines as intermediates for insecticides” (ICI Americas Inc., priority 1990, dated 1991).

Tests used:
Format in all cases: in vivo
[1] = test system: Maize weevil [Sitophilus Zeamais (Motschulsky)]; assay: Maize weevil insecticidal test; settings: adult weevils, percent in solution; 48 hours
Outline: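 LC50, in percent of compound in solution, was derived from dosage-mortality curves after 48 h at about 25 °C. Ten adult weevils per container fed on four corn seeds briefly immersed in acetone:water (50:50) solutions of up to 0.01% and dried.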

[2] = test system: Tobacco Budworm [Heliothis virescens (Fabricius)] eggs; assay: Tobacco budworm egg test; settings: 2-day old eggs, percent in solution
Outline: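 Mortality of dipped eggs served as read-out, recorded after untreated controls hatched and began feeding. Treatments used acetone solutions from 0.1% downward, with eggs incubated at 78° F; LC50 is expressed as percent of compound in the solution.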

[3] = test system: Aster Leafhopper [Macrosteles fascifrens (Stal)]; assay: Aster leafhopper insecticidal test; settings: adults/nymphs, percent in solution; 48 hours
Outline: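 LC50 values, given as percent of test compound in the dip solution, were derived from dosage-mortality curves over concentrations from 0.05% downward. Mortality was counted 48 hours after ten leafhopper adults/nymphs were enclosed on treated seedlings. The seedlings were oats, about 10 cm tall, briefly dipped in 50-50 acetone-water.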

[4] = test system: Tobacco Budworm [Heliothis virescens (Fabricius)] larvae; assay: Tobacco budworm contact test; settings: second-instar larvae, percent in solution, 5 days
Outline: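 Cotton cotyledons dipped 2–3 s in compound in 50-50 acetone-water, dried, then infested with 5 second-instar larvae and held 5 days at high humidity. Mortality scored; LC50 from dosage-mortality curves, expressed as percent compound in solution, concentrations from 0.1% downward.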

[5] = test system: Cabbage Looper [Trichoplusia ni (Hubner)]; assay: Cabbage looper insecticidal test; settings: second-instar larvae, percent in solution; 3-5 days
Outline: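 Steps: dilute compound in 50-50 acetone-water from 0.1% downward; immerse cotyledon pieces 2-3 s and dry; place in humid petri dishes with five second-instar larvae; record mortality at 3-5 days. Dosage-mortality curves yield LC50 as percent in solution.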

[6] = test system: Housefly [Musca domestica]; assay: Housefly insecticidal test; settings: μg per 25 female flies; mortality after 48 hours
Outline: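 LC50 (μg compound per 25 female flies) derives from dosage-mortality curves of 48 h kill. Flies, females 1-2 days old, were held 25 per cage over a dish coated with dried acetone deposit, starting at 100 μg per cage and descending.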

[7] = test system: Rice water weevil [Lissorhoptrus oryzophilus (Kuschel)]; assay: Rice water weevil insecticidal test; settings: topical, μg per weevil; 48 hours
Procedure: The compounds in Tables 1 and 2 above were tested for insecticidal activity using the following testing procedures. LC50 values, based on the results of these tests and calculated according to dosage-mortality curves, are expressed in Table 3.
Rice water weevil [Lissorhoptrus oryzophilus (Kuschel)]:
Test compounds were diluted in acetone. Droplets (1 μl) of test solutions were applied to the ventral abdomens of ten female adult weevils. The treated weevils were placed in containers with wet cotton balls and rice foliage. The containers were covered and kept at a temperature of about 25° C. Mortality was recorded after 48 hours. Test concentrations ranged from […] or 2.5 μg per weevil down to that at which 50% mortality occurred. The LC50 values are expressed below in Table 3 under the heading "RWW" in terms of μg of test compound per weevil.

[8] = test system: Beet Armyworm (Spodoptera exigua); assay: Beet armyworm insecticidal test; settings: second-instar larvae, percent in solution; five days
Outline: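 Five second-instar larvae per dish fed on dried sugar beet leaves previously dipped 2–3 s in acetone-water (1:1) test solutions up to 0.1%. Kept at high humidity, with deaths counted after five days; LC50 as % in solution via dosage-mortality curves.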

Compound | LC50, MW [1] [%] | LC50, TBW, E (TBW-E) [2] [%] | LC50, LH [3] [%] | LC50, TBW, C (TBW-C) [4] [%] | LC50, CL [5] [%] | LC50, HF [6] [µg] | LC50, RWW [7] [µg] | LC50, BAW [8] [%]
CC(C)C(=Nc1ccc(F)c(Br)c1)OCc1ccc(F)c(Oc2ccc(Cl)cc2)c1 [Compound 298] | 0.008 | 0.015 | 0.0001 | 0.0008 | 0.0001 | 13 | > 2.5 | 
CC(C)C(=Nc1ccc(OC(F)(F)F)cc1)OCc1ccc(F)c(Oc2ccccc2)c1 [Compound 338] | 0.0053 | 0.01 |  | 0.00037 | 0.000065 | 26 | 0.044 | 
CC(C)C(=Nc1ccc(F)c(F)c1)OCc1ccc(F)c(Oc2ccccc2)c1 [Compound 336] | 0.0091 | 0.02 |  | 0.0005 | 0.00017 | 3.6 | > 2.5 | 0.001
CC(C)C(=Nc1ccc(Cl)c(Cl)c1)OCc1ccc(F)c(Oc2ccc(Cl)cc2)c1 [Compound 296] |  | 0.025 | 0.0003 | 0.00045 | 0.00025 | 38 | 0.14 | 
FC(F)(F)c1cccc(N=C(OCc2cccc(Oc3ccccc3)c2)C(Cl)Cl)c1 [Compound 66] |  | 0.06 | 0.001 |  | < 0.0025 | 9.7 | > 2.5 | 0.0065
CC(C)C(=Nc1ccc(F)c(Cl)c1)OCc1cccc(Oc2ccc(F)cc2)n1 [Compound 461] | 0.0075 | 0.01 |  |  | 0.00008 | 6 | > 2.5 | 0.0035
CC(C)C(=Nc1ccc(F)c(Cl)c1F)OCc1cccc(Oc2ccc(Cl)cc2)c1 [Compound 331] |  | 0.04 |  | 0.0004 | 0.0002 | 20 | > 2.5 | 0.002
CC(C)C(=Nc1ccc(F)c(Cl)c1)OCc1cccc(Oc2ccc(F)cc2F)c1 [Compound 191] | 0.004 | 0.04 | > 0.05 |  | 0.00023 | 29 | > 2.5 | 
CC(C)C(=Nc1ccc(F)c(Cl)c1F)OCc1ccc(F)c(Oc2ccccc2)c1 [Compound 451] | 0.0051 | > 0.1 | 0.0002 | 0.00025 | 0.0001 | 3.6 | 0.065 | 
CC(C)C(=Nc1ccc(F)c(Cl)c1F)OCc1ccc(F)c(Oc2ccc(F)cc2)c1 [Compound 330] | 0.001 | 0.037 | < 0.05 | 0.00035 | 0.00012 | 5 | 0.06 | 
CC(C)C(=Nc1ccc(F)c(C(F)(F)F)c1)OCc1ccc(F)c(Oc2ccccc2)c1 [Compound 300] | 0.01 | 0.024 | 0.00002 | 0.001 | 0.0003 | 14 | 0.075 | 
CC(C)C(=Nc1ccc2c(c1)OC(F)(F)O2)OCc1cccc(Oc2ccc(F)cc2)c1 [Compound 244] | 0.0025 | > 0.1 |  | 0.00025 | 0.00004 | 14 | 0.09 | 0.002
CC(C)C(=Nc1ccc(C(F)(F)F)cc1)OCc1ccc(F)c(Oc2ccccc2)c1 [Compound 337] | 0.0053 | 0.008 |  | 0.0005 | 0.0007 | 21 | 0.067 | 0.0005
CC(C)C(=Nc1ccc2c(c1)OC(F)(F)O2)OCc1cccc(Oc2ccccc2)c1 [Compound 245] | 0.006 | 0.016 |  | 0.0015 | 0.0035 | 20 | > 2.5 | 0.001
CC(C)C(=Nc1ccc(F)c(F)c1)OCc1ccc(F)c(Oc2ccc(Cl)cc2)c1 [Compound 295] | 0.0053 | 0.01 | 0.0001 | 0.0005 | 0.00004 | 7.8 | > 2.5 | 
CC(C)C(=Nc1ccc(C(F)(F)F)cc1)OCc1ccc(F)c(Oc2ccc(Cl)cc2)c1 [Compound 324] |  | 0.025 |  | 0.0004 | 0.00014 | > 100 | 0.06 | 0.0024
CC(C)C(=Nc1ccc(F)c(Cl)c1)OCc1cccc(Oc2cccc(F)c2)c1 [Compound 125] | > 0.01 | 0.025 | > 0.05 |  | 0.0007 | 12 | > 2.5 | 
CC(C)C(=Nc1ccc2c(c1)OC(F)(F)O2)OCc1ccc(F)c(Oc2ccccc2)c1 [Compound 285] | 0.005 | 0.005 |  | 0.00017 | 0.000075 | 36 | 0.13 | 0.0006
CC(C)C(=Nc1ccc2c(c1)OCO2)OCc1ccc(F)c(Oc2ccccc2)c1 [Compound 181] | 0.005 | 0.01 |  | 0.001 | 0.0005 | 25 | > 2.5 | 0.001
CC(C)C(=Nc1ccc(F)cc1)OCc1ccc(F)c(Oc2ccc(Cl)cc2)c1 [Compound 325] |  | 0.037 |  | 0.0006 | 0.00012 | 5 | > 2.5 | 0.0025
CC(C)C(=Nc1ccc(F)c(I)c1)OCc1ccc(F)c(Oc2ccc(F)cc2)c1 [Compound 281] | 0.005 | 0.006 |  | 0.00025 | 0.00002 | 5 | > 2.5 | 0.0027
CC(C)C(=Nc1ccc(Cl)c(Cl)c1)OCc1ccc(F)c(Oc2ccc(F)cc2)c1 [Compound 289] | > 0.01 | 0.006 | 0.0003 |  | 0.00007 | 10 | 0.082 | 
CC(C)C(=Nc1ccc(F)c(F)c1F)OCc1ccc(F)c(Oc2ccc(F)cc2)c1 [Compound 349] | > 0.01 | > 0.1 |  | 0.0004 | 0.00007 | 4.9 | > 2.5 | > 0.1
